The record followed here is patent US20250186405A1, “Compound For Use In Treating Narcolepsy” (Alkermes, Inc., priority 2023, published 2025).

Where two headings read alike, the source gives them in different places.

The nature of the data set: Part 4 NT1: plasma pharmacokinetics, single doses. The format is in vivo. The note with it: human, oral; for Cmax / AUC(0-t): geometric mean. On the procedure:
Subjects were randomized to 1 of 4 sequences.
Blood samples (up to 5 mL per sample) were collected for PK analysis of Compound A and its metabolite(s). The actual time of sample collection was recorded. The PK samples of the subjects randomized to placebo treatment were not analyzed. Any remaining plasma PK samples were used to explore the presence of any additional metabolites and/or biomarkers.
Plasma and urine concentrations of Compound A and its metabolite(s) were measured using a validated high-performance liquid chromatography with tandem mass spectrometry.
The PK population was used for summaries of plasma Compound A and its metabolite(s) concentrations and for analyses, summaries, and listing of PK parameters. Dose proportionality for Cmax, AUC0-t, and AUC0-∞ was evaluated using a linear model of logarithmically transformed values to assess the slope parameter, and the 95% CI for the slope was estimated. Where a 95% CI of the slope includes 1, it was considered as evidence of dose proportionality for that PK parameter.

Regarding `CS(=O)(=O)N[C@H]1CCCN2C(=O)COc3ccccc3C3CCC(CC3)OCC12` (stereo partly drawn) [Compound A, N-[(4S,4aR,7α,10α)-1,2,3,4,4a,5,7,8,9,10,16,17-dodecahydro-17-oxo-7,10-ethanopyrido[1,2-d][1,7,4]benzodioxaazacyclotridecin-4-yl]methanesulfonamide], the Tmax is, setting by setting: (1 mg, NT1, 1 mg single dose, median, N = 3, read-out: Tmax) 1.5 h; (3 mg, NT1, 3 mg single dose, median, N = 4, read-out: Tmax) 1.5 h; (8 mg, NT1, 8 mg single dose, median, N = 3, read-out: Tmax) 3 h; (8 mg, NT1, single dose 1, 3 and 8 mg (range 0.5 to 4.0), read-out: median Tmax) 1.5 h. This molecule also yielded a Cmax (NT1, 1 mg single dose, N = 3) of 4.39 ng/mL; a Cmax (NT1, 3 mg single dose, N = 4) of 11.6 ng/mL; a Cmax (NT1, 8 mg single dose, N = 3) of 27.9 ng/mL. Besides, the AUC(0-t) by setting is: (NT1, 1 mg single dose, N = 3, read-out: AUC0-24) 19.5 ng·h/mL; (NT1, 3 mg single dose, N = 4, read-out: AUC0-24) 59.1 ng·h/mL; (NT1, 8 mg single dose, N = 3, read-out: AUC0-24) 169 ng·h/mL.

For orientation: Tmax means the time at which the peak concentration occurs. For orientation: Cmax means the maximum level reached in the sampled fluid or tissue.
